Laboratory results published in article PMC6930223 (Scientific Reports, 2019).

Legend:
CYP1A2 = system: CYP1A2; set-up: method as in PMID 24174816, PMID 23274770; details: cited from earlier work
Hsp90 = test: Western blot of endogenous chaperone expression in HEK-hERG1a/1b cells; assay type: cell-based, human; details: exposure for 24 h
Description: (§1) Total protein was isolated using RIPA lysis buffer system (Santa Cruz Biotechnology, Inc., USA). Equal amounts of protein samples were loaded onto 7.5% (v/v) polyacrylamide gels and were subsequently transferred to Immobilon®-P PVDF membrane (Millipore, USA) using Trans-Blot® Turbo™ Blotting System (Bio-Rad Laboratories, USA). Blots were blocked with 3% (w/v) skim milk for 1 h and probed with optimized primary antibodies against hERG1a (1:5000), hERG1b (1:1250), Hsp70 (1:10, 000), Hsp90 (1:5000) and β-actin (1:5000) overnight at 4 °C. Finally, the blots were then incubated in horseradish peroxidase (HRP) conjugated secondary antibody (1:1000) for 2.5 h followed by Clarity™ Western ECL substrate (Bio-Rad Laboratories, USA). The antibodies used for Western blotting were rabbit hERG1a polyclonal antibody (Enzo Life Sciences, USA), rabbit hERG1b polyclonal antibody (Enzo Life Sciences, USA), rabbit Hsc70/Hsp70 polyclonal antibody (Enzo Life Sciences, USA), rabbit Hsp90 polyclonal antibody (Enzo Life Sciences, USA), rabbit β-actin antibody (Cell Signaling, USA) and anti-rabbit IgG HRP-linked antibody (Cell Signaling, USA). Chemiluminescence signal was detected using ChemiDoc™ XRS Imaging System (Bio-Rad Laboratories, USA). Band densities were scanned and quantified using Image Lab Software (Bio-Rad Laboratories, USA). […]

Hsp70 = test: as above; assay type: cell-based, human; details: exposure for 24 h
Description: as §1

hERG1a [1] = test: Immunofluorescence surface expression (CTCF/area) in HEK293-hERG1a/1b cells; assay type: cell-based, human; details: 10 µM, 24 h, control 0.1% (v/v) DMSO
Description: (§2) Briefly, cells were first seeded onto 24 mm × 24 mm pre-coated glass cover slips (Leica Microsystems, Germany) in a 6 well plate containing 10% (v/v) FBS-complete DMEM medium. The sterile glass cover slips (Leica Microsystems, Germany) were coated with HistoGrip (Invitrogen, USA) before use. Cells were first cultured in fresh medium containing 0.5% (v/v) FBS for 4 h before replenishing with medium containing arsenic trioxide (positive control) or mitragynine for 24 h. Medium containing 0.1% (v/v) DMSO was used as control. After incubation, the monolayer cells were fixed with 4% (w/v) paraformaldehyde and incubated for 15 min at room temperature, followed by rinsing with PBST solution and incubating with 0.1% (v/v) Triton X-100 solution for 2 min. Subsequently blocking was performed with 3% (w/v) BSA for 1 h and followed by incubation with primary antibodies against hERG1a (1:1000) and hERG1b (1:125) at 4 °C overnight. Immunolabelling was carried out using anti-rabbit IgG F(ab’)2 Alexa Fluor® 488 molecular probes (Cell Signaling, USA) diluted at 1:250 in 3% (w/v) BSA at room temperature. Finally, the cover slips were mounted using Fluoroshield™ with DAPI (Sigma-Aldrich, USA) and viewed under 600x magnification using Nikon C2 confocal microscope (Nikon, USA). The excitation/emission wavelengths for Alexa Fluor 488 and DAPI were 488/512 nm and 405/488 nm respectively. The laser imaging settings such as laser power, gain and amplification factor were set to be similar for all samples. […] For each test sample, at least 20 cells were randomly selected from the 15 spots for quantitation. The green fluorescence intensity was quantified using ImageJ software (http://imagej.nih.gov/ij/)[72],[73]. Intensity was represented as the “corrected total cell fluorescence” (CTCF) per area using the equation “CTCF/area = [Integrated density - (Area of selected cell × Mean fluorescence of background readings)]/Area of selected cell”. Relative protein expression of hERG1a and hERG1b was determined by dividing the mean CTCF/area of treated cells to that of the untreated control. […]

hERG1b = test: as above; assay type: cell-based, human; details: 24 h
Description: as §2

[2] = system: hERG1b protein (fg 95 kDa, cg 80 kDa); test: Western blot protein expression in HEK293-hERG1a/1b cells; assay type: cell-based, human; details: all concentrations, 24 h
Description: (§3) Total protein was isolated using RIPA lysis buffer system (Santa Cruz Biotechnology, Inc., USA). Equal amounts of protein samples were loaded onto 7.5% (v/v) polyacrylamide gels and were subsequently transferred to Immobilon®-P PVDF membrane (Millipore, USA) using Trans-Blot® Turbo™ Blotting System (Bio-Rad Laboratories, USA). Blots were blocked with 3% (w/v) skim milk for 1 h and probed with optimized primary antibodies against hERG1a (1:5000), hERG1b (1:1250), Hsp70 (1:10, 000), Hsp90 (1:5000) and β-actin (1:5000) overnight at 4 °C. Finally, the blots were then incubated in horseradish peroxidase (HRP) conjugated secondary antibody (1:1000) for 2.5 h followed by Clarity™ Western ECL substrate (Bio-Rad Laboratories, USA). The antibodies used for Western blotting were rabbit hERG1a polyclonal antibody (Enzo Life Sciences, USA), rabbit hERG1b polyclonal antibody (Enzo Life Sciences, USA), rabbit Hsc70/Hsp70 polyclonal antibody (Enzo Life Sciences, USA), rabbit Hsp90 polyclonal antibody (Enzo Life Sciences, USA), rabbit β-actin antibody (Cell Signaling, USA) and anti-rabbit IgG HRP-linked antibody (Cell Signaling, USA). Chemiluminescence signal was detected using ChemiDoc™ XRS Imaging System (Bio-Rad Laboratories, USA). Band densities were scanned and quantified using Image Lab Software (Bio-Rad Laboratories, USA). The signal for each protein band was normalized to the reference protein, β-actin. Experiments were conducted in duplicate and represented as mean fold changes of three independent experiments.

[3] = system: hERG1a protein (fg 155 kDa, cg 135 kDa); test: as above; assay type: cell-based, human; details: 24 h
Description: as §3

hERG1a [4] = system: hERG1a; set-up: method as in PMID 27260674; details: read-out: IC50 in hERG1a-transfected HEK293 cells; cited from earlier work
[5] = system: rapidly delayed rectifier potassium current (IKr) in hiPSC-CMs; set-up: method as in PMID 25535742; details: cited from earlier work

Question: Which results are given for mitragynine?
Answer: effect on CYP1A2 (induction) (CYP1A2): inductive effect; Hsp90 levels (Hsp90): neither Hsp70 nor Hsp90 levels were significantly altered; Hsp70 levels (Hsp70): neither Hsp70 nor Hsp90 levels were significantly altered; hERG1a fluorescence intensity vs control (hERG1a [1]): significant reduction to approximately half of the intensity; hERG1b fluorescence intensity (hERG1b; 1 µM): unaffected; hERG1b fluorescence intensity (hERG1b; 10 μM): unaffected; cg-hERG1b protein expression [2]: no significant changes; fg-hERG1b protein expression [2]: no significant changes; increase of cg-hERG1a expression ([3]; 10 µM, vs untreated control): ~50%; reduction of fg-hERG1a expression ([3]; 10 µM, vs untreated control): approximately 22.3%; expression of cg-hERG1a ([3]; 0.001–1 µM): unaffected; protein expression of fg-hERG1a ([3]; 0.001–1 µM): no clear pattern; IC50 (hERG1a [4]): 1.62 µM; action potential duration at 50 and 90% repolarization (APD50 and APD90) ([5]; 10 µM, hiPSC-CMs): significantly prolonged; IC50 ([5]; read-out: IC50 of IKr suppression in hiPSC-CMs): 0.91 µM
